# Measured values from publication PMC5668088, “A phase I clinical trial of binimetinib in combination with FOLFOX in patients with advanced metastatic colorectal cancer who failed prior standard therapy” (Oncotarget, 2017).
# Where two headings read alike, the source gives them in different places.
# Assays:
# [1] = human, in vivo, po
# Experimental: A standard 3 + 3 dose-escalation design was followed using a continuous and intermittent oral binimetinib dosing schedule combined with fixed-dose FOLFOX. […] The continuous binimetinib dosing schedule was comprised of 2 dosing levels: 30 mg orally twice daily and 45 mg orally twice daily continuously starting on day 1 with FOLFOX, repeated every 2 weeks. The MTD of binimetinib continuous daily dosing was explored in an additional 6-patient cohort to investigate potential FOLFOX-binimetinib pharmacokinetic interactions. In addition, the MTD dose of binimetinib was explored further with FOLFOX in an intermittent sequential schedule in order to minimize treatment toxicity, with binimetinib twice daily on days 1–5 with FOLFOX on days 6–7 every 2 weeks. The starting dose of binimetinib on the intermittent arm was the MTD dose level identified on the continuous dosing schedule. Following standard dose-escalation rules, the maximum tolerated dose (MTD) for either schedule was defined as the highest dose level tested in which no more than 1 of 6 patients experienced a dose-limiting toxicity (DLT) in the dose-escalation phase. […] No intra-patient dosing escalations were allowed. No escalation beyond the previous binimetinib monotherapy recommended dose of 45 mg PO BID was allowed. […]
# MEK1/2 = conditions: preclinical; cited from earlier work
# [2] = parameters: method as in ref 19–24 = [19]; 19 Sosman JA Kittaneh M Lolkema MP Postow MA Schwartz G Franklin C Matano A Bhansali S Parasuraman S Kim K A phase 1b/2 study of LEE011 in combination with binimetinib (MEK162) in patients with NRAS-m || [20]; 20 Juric D Soria JC Sharma S Banerji U Azaro A Desai J A phase Ib open-label, multicenter, dose-escalation and-expansion study of orally administered binimetinib (MEK162) plus BYL719 in adult patients || [21]; 21 Chi P Qin L D’Angelo SP Dickson MA Gounder MM Keohan ML Shoushtari AN Condy MM Konen T Fruauff A DeMatteo RP Singer S Hwang S A phase Ib/II study of MEK162 (binimetinib [BINI]) in combination with || [22]; 22 Van Herpen C Postow MA Carlino MS Kalkavan H Weise A Amaria RN De Vos F Carvajal RD Matano A Bhansali S Lam L Yerramilli-Rao P Sosman JA A phase 1b/2 study of ribociclib (LEE011; CDK4/6 inhibitor) || [23]; 23 Dummer R Sandhu S Hassel JC Muñoz E Berking C Gesierich A Ascierto PA Esposito O Carter K Antona V Radhakrishnan R Cui X Caponigro G LOGIC2: Phase 2,multi-center, open-label study of sequential enc; conditions: oral twice daily, continuous dosing; five phase Ib/II trials; cited from earlier work
# [3] = parameters: method as in ref 25 = [25]; 25 Grisham RN Gordon MS Harb WA Aghajanian C McMeekin DS McKinley K Anderson L Chavira R Christy-Bittel J Barrett E Moore KN A phase Ib dose-escalation study of binimetinib (MEK162) in combination wit; conditions: orally twice daily, cited from earlier work
# advanced solid tumors = conditions: twice daily, cited from earlier work
# [4] = cited from earlier work
# [5] = for Oxaliplatin T1/2, Avg STD: Table 4
# [6] = 5-FU plasma pharmacokinetics without and with binimetinib (LC-MS/MS)
# Experimental: Fluorouracil levels in plasma were determined using an LC-MS/MS analytical assay also in the APCF with LLOQ of 3 ng/mL from a 200 μL aliquot of plasma.
# previously-treated mCRC = tested on: previously-treated mCRC; parameters: method as in ref 34 = [34]; 34 Bendell J Won KT Ean CC Yung-Jue B Lee C Desai J Lewin J Wallin J Das Thakur M Mwawasi G Cha E Infante J Safety and efficacy of cobimetinib (cobi) and atezolizumab (atezo) in a Phase 1b study of me; conditions: escalating doses of cobimetinib in combination with atezolizumab; 23 patients (4 responders); cited from earlier work
# [7] = Pt#1, Cycle 1 (without binimetinib)
# [8] = Pt#2, Cycle 1 (without binimetinib)
# [9] = Pt#2, Cycle 2 (with binimetinib)
# [10] = Pt#3, Cycle 1 (without binimetinib)
# [11] = Pt#3, Cycle 2 (with binimetinib)
# [12] = Pt#4, Cycle 1 (without binimetinib)
# [13] = Pt#4, Cycle 2 (with binimetinib)
# [14] = Pt#5, Cycle 1 (without binimetinib)
# [15] = Pt#5, Cycle 2 (with binimetinib)
# [16] = Pt#6, Cycle 2 (with binimetinib)
structure (smiles),measurement,setting,value
Cn1cnc2c(F)c(Nc3ccc(Br)cc3F)c(C(=O)NOCCO)cc21 [binimetinib],MTD of binimetinib in combination with FOLFOX,[1],45 mg
same,Inhibition of MEK and downstream phosphorylated ERK (pERK),MEK1/2,nanomolar range
same,MTD or RP2D of binimetinib in combination with various targeted agents,[2],45 mg
same,RP2D of binimetinib combined with paclitaxel,"[3]; continuous dosing, paclitaxel 80 mg/m^2 weekly 3 out of 4 weeks",30 mg
same,RP2D of binimetinib combined with paclitaxel,[3]; intermittent dosing (days 1–5 weekly for 3 out of 4 weeks),45 mg
same,Recommended phase II dose (RP2D) of oral binimetinib,advanced solid tumors; due to recurrent DLTs of retinal events,45 mg
same,MTD of single-agent oral binimetinib,"advanced solid tumors; pretreated advanced solid tumors, first dose-escalation phase I study",60 mg
same,Patients with atrial fibrillation,[4]; in vivo,1
same,Patients with irregular heart rate,[4]; in vivo,1
same,Patients with grade 1–2 retinal adverse events,"[4]; phase II trial, binimetinib 45 mg twice daily, NRAS- or BRAF-mutated advanced melanomas",18%
O=C1[O][Pt]2([NH][C@@H]3CCCC[C@H]3[NH]2)[O]C1=O [Oxaliplatin],"Oxaliplatin AUC, Avg STD",[5]; Cycle 1 (without binimetinib),26580.5 4844.8 μg/L X hr
same,"Oxaliplatin T1/2, Avg STD",[5]; Cycle 1 (without binimetinib),37.1 11.7 36
same,"Oxaliplatin AUC, Avg STD","[5]; Cycle 1 (without binimetinib), listed as oxaliplatin",26580.5 ± 4844.8 μg/L X hr
same,"Oxaliplatin AUC, Avg STD",[5]; Cycle 2 (with binimetinib),32190.9 11861.2 μg/L X hr
same,"Oxaliplatin T1/2, Avg STD",[5]; Cycle 2 (with binimetinib),38.8 22.6 36
same,"Oxaliplatin AUC, Avg STD","[5]; Cycle 2 (with binimetinib), listed as oxaliplatin",32190.9 ± 11861.2 μg/L X hr
same,Oxaliplatin AUC,[5]; [7],28618.0 μg/L X hr
same,Oxaliplatin Cmax,[5]; [7],536.0 µg/L
same,Oxaliplatin AUC,[5]; [8],31146.9 μg/L X hr
same,Oxaliplatin Cmax,[5]; [8],780.8 µg/L
same,Oxaliplatin AUC,[5]; [9],51036.0 μg/L X hr
same,Oxaliplatin Cmax,[5]; [9],590.0 µg/L
same,Oxaliplatin AUC,[5]; [10],25757.7 μg/L X hr
same,Oxaliplatin Cmax,[5]; [10],686.5 µg/L
same,Oxaliplatin AUC,[5]; [11],33953.4 μg/L X hr
same,Oxaliplatin Cmax,[5]; [11],726.5 µg/L
same,Oxaliplatin AUC,[5]; [12],18615.5 μg/L X hr
same,Oxaliplatin Cmax,[5]; [12],601.5 µg/L
same,Oxaliplatin AUC,[5]; [13],25138.7 μg/L X hr
same,Oxaliplatin Cmax,[5]; [13],748.5 µg/L
same,Oxaliplatin AUC,[5]; [14],28764.2 μg/L X hr
same,Oxaliplatin Cmax,[5]; [14],389.3 µg/L
same,Oxaliplatin AUC,[5]; [15],19805.3 μg/L X hr
same,Oxaliplatin Cmax,[5]; [15],583.5 µg/L
same,Oxaliplatin AUC,[5]; [16],31020.9 μg/L X hr
same,Oxaliplatin Cmax,[5]; [16],671.0 µg/L
same,Oxaliplatin average T1/2,[5]; with binimetinib,38.8 ± 22.6 h
same,Oxaliplatin average T1/2,[5]; without binimetinib,37.1 ± 11.7 h
"O=c1[nH]cc(F)c(=O)[nH]1 [5-FU, Fluorouracil]","5-FU steady-state level, Avg STD","[6]; Cycle 2 (with binimetinib 45 mg BID continuous), plasma, PK cohort",597.6 ± 204.5 ng/mL
same,5-FU steady-state level,[6]; [7],353.0 ng/mL
same,5-FU steady-state level,"[6]; Pt#1, Cycle 2 (with binimetinib)",293.1 ng/mL
same,5-FU steady-state level,[6]; [8],524.0 ng/mL
same,5-FU steady-state level,[6]; [9],480.5 ng/mL
same,5-FU steady-state level,[6]; [10],627.5 ng/mL
same,5-FU steady-state level,[6]; [11],718.0 ng/mL
same,5-FU steady-state level,[6]; [12],427.5 ng/mL
same,5-FU steady-state level,[6]; [13],770.5 ng/mL
same,5-FU steady-state level,[6]; [14],621.0 ng/mL
same,5-FU steady-state level,[6]; [15],726.0 ng/mL
same,5-FU steady-state level,"[6]; Pt#6, Cycle 1 (without binimetinib)",428.0 ng/mL
same,Difference in 5-FU PK with vs without binimetinib,[6]; in vivo,no significant differences
O=C(c1ccc(F)c(F)c1Nc1ccc(I)cc1F)N1CC(O)([C@@H]2CCCCN2)C1 [cobimetinib],Partial responses,previously-treated mCRC,17%
